Source: paper PMC6930659, “Antiprotozoal Activity of Turkish Origanum onites Essential Oil and Its Components” (Molecules, 2019)
≈ marks a conversion by molar mass, not a printed value. Where two headings read alike, the source gives them in different places.

What was measured:
P. falciparum K1 strain = experiment: In vitro assay for Plasmodium falciparum ([3H]-hypoxanthine incorporation); format: cell-based
Procedure: Activity against the erythrocytic stages of P. falciparum was determined using an in vitro modified [^3H]-hypoxanthine incorporation assay, using the chloroquine- and pyrimethamine-resistant K1 strain [68]. Compounds were dissolved in DMSO at 10 mg/mL and further diluted in medium before added to parasite cultures incubated in RPMI 1640 medium without hypoxanthine, supplemented with HEPES (5.94 g/l), NaHCO3 (2.1 g/L), neomycin (100 U/mL), AlbumaxR (5 g/L), and washed human red cells A+ at 2.5% haematocrit (0.3% parasitaemia). Serial drug dilutions of seven 3-fold dilution steps covering a range from 90 to 0.123 μg/mL were prepared. The 96 well plates were incubated in a humidified atmosphere at 37 °C; 4% CO2, 3% O2, 93% N2. After 48 h 50 μL of ^3H-hypoxanthine (=0.5 μCi) was added to each well of the plate. The plates were incubated for a further 24 h under the same conditions. The plates were then harvested with a Betaplate™ cell harvester (Wallac, Zurich, Switzerland), and the red blood cells transferred onto a glass fiber filter then washed with distilled water. The dried filters were inserted into a plastic foil with 10 mL of scintillation fluid, and counted in a Betaplate™ liquid scintillation counter (Wallac, Zurich, Switzerland). […] IC50 values were calculated from the sigmoidal inhibition curves using Microsoft Excel. Chloroquine was used as positive control drug.

Leishmania = system: Leishmania; set-up: method as in PMID 15793164; conditions: oral administration in mice for 30 days; cited from earlier work
[1] = system: Trypanosoma brucei rhodesiense STIB 900; experiment: In vitro assay for Trypanosoma brucei rhodesiense (resazurin); format: cell-based
Procedure: Trypanosoma brucei rhodesiense STIB 900 strain, isolated in 1982 from a human patient in Tanzania and, after several mouse passages, cloned and adapted to axenic culture conditions, was used in this assay. Minimum essential medium (50 μL) supplemented with 25 mM HEPES, 1 g/L additional glucose, 1% MEM non-essential amino acids (100×), 0.2 mM 2-mercaptoethanol, 1 mM Na-pyruvate, and 15% heat inactivated horse serum was added to each well of a 96 well microtiter plate. Serial drug dilutions of seven 3-fold dilution steps covering a range from 90 to 0.123 μg/mL were prepared, and then 4 × 10^4 blood stream forms of T. b. rhodesiense STIB 900 in 50 μL were added to each well and the plate was incubated at 37 °C under a 5% CO2 atmosphere for 72 h. Resazurin solution (resazurin, 12.5 mg in 100 mL double-distilled water) (10 μL) was then added to each well and incubated for a further 2–4 h. At the end of the assay, the plates were read with a Spectramax Gemini XS microplate fluorometer (Molecular Devices Cooperation, Sunnyvale, CA, USA) using an excitation wavelength of 536 nm and an emission wavelength of 588 nm. Data were analyzed using the microplate reader software Softmax Pro (Molecular Devices Cooperation, Sunnyvale, CA, USA). Melarsoprol was used as standard drug.

[2] = system: L. donovani (strain MHOM/ET/67/L82) amastigotes; experiment: In vitro assay for Leishmania donovani axenic amastigotes (resazurin); format: cell-based; conditions: axenic amastigotes, 72 h, means of two determinations ± deviation, read-out: IC50 Leishmania donovani
Procedure: Amastigotes of L. donovani (strain MHOM/ET/67/L82) were grown in axenic culture at 37 °C in SM medium at pH 5.4 supplemented with 10% heat-inactivated FBS under an atmosphere of 5% CO2. Culture medium (100 μL) with 10^5 amastigotes from axenic culture with or without a serial drug dilution was seeded in 96 well microtiter plates. Serial drug was prepared covering a range of dilutions from 90 to 0.123 μg/mL. After 72 h of incubation, the plates were inspected under an inverted microscope to assure growth of the controls and sterile conditions. Subsequently, 10 μL resazurin solution (12.5 mg resazurin dissolved in 100 mL double-distilled water) was added to each well and the plates were incubated for another 2 h. The plates were then read with a Spectramax Gemini XS microplate fluorometer (Molecular Devices Cooperation, Sunnyvale, CA, USA) using an excitation wavelength of 536 nm and an emission wavelength of 588 nm. Data were analyzed using the software Softmax Pro (Molecular Devices Cooperation, Sunnyvale, CA, USA). A decrease of fluorescence (=inhibition) was expressed as percentage of the fluorescence of control cultures and plotted against the drug concentrations. From the sigmoidal inhibition curves, the IC50 values were calculated. Miltefosine was used as a reference drug.

[3] = system: T. cruzi Tulahuen strain C2C4; experiment: In vitro assay for Trypanosoma cruzi in L-6 cells (β-galactosidase/CPRG); format: cell-based; conditions: Trypanosoma cruzi, L6; Tulahuen C2C4 in L-6 cells, 96 h; highest concentration tested 90 μg/mL; means of two determinations ± deviation
Procedure: Rat skeletal myoblasts (L-6 cells) were seeded in 96 well microtiter plates (2000 cells/well) in 100 μL RPMI 1640 medium with 10% FBS and 2 mM L-glutamine for 24 h. After that, the medium was removed and replaced by 100 μL per well containing 5000 trypomastigote forms of T. cruzi Tulahuen strain C2C4, containing the β-galactosidase (Lac Z) gene. The medium was removed from the wells after 48 h, and replaced with 100 μL fresh medium with or without a serial drug dilution of seven 3-fold dilution steps covering a range from 90 to 0.123 μg/mL. After 96 h of incubation, the plates were inspected under an inverted microscope to assure growth of the controls and sterility, after which the substrate CPRG/Nonidet ([…]) was added to all wells. A color reaction developed within 2–6 h and could be read photometrically at 540 nm. Data were transferred into the graphic program Softmax Pro (Molecular Devices Cooperation, Sunnyvale, CA, USA) and the IC50 values were calculated from the sigmoidal dose response curves. Benznidazole was the reference drug.

[4] = In vitro assay for cytotoxicity on mammalian cells (resazurin); format: cell-based, rat; conditions: rat skeletal myoblasts, 72 h, means of two determinations ± deviation, read-out: IC50 Cytotoxicity L6 cells
Procedure: Assays were performed in 96 well microtiter plates (4 × 10^4 L6 cells/well), each well containing 100 μL of RPMI 1640 medium supplemented with 1% L-glutamine (200 mM) and 10% FBS. L6 cells are a primary cell line derived from rat skeletal myoblasts. Serial drug dilutions of seven 3-fold dilution steps covering a range from 90 to 0.123 μg/mL were prepared. After 72 h of incubation, the plates were inspected under an inverted microscope to assure growth of the controls and sterile conditions. Resazurin solution (10 μL) (12.5 mg resazurin in 100 mL double-distilled water) was then added to each well and the plates incubated for another 2 h. The plates were then read with a Spectramax Gemini XS microplate fluorometer (Molecular Devices Cooperation, Sunnyvale, CA, USA) using an excitation wavelength of 536 nm and an emission wavelength of 588 nm. Data were analyzed using the microplate reader software Softmax Pro (Molecular Devices Cooperation, Sunnyvale, CA, USA). From the sigmoidal inhibition curves, the IC50 values were calculated. Podophyllotoxin was the positive control.

T. b. brucei = system: T. b. brucei; set-up: method as in PMID 29778466; conditions: blood stream trypomastigotes cultures; AnTart 1 strain, wild type; cited from earlier work
T. cruzi epimastigotes = system: T. cruzi epimastigotes; set-up: method as in doi:10.1080/10412905.2013.820669; conditions: cited from earlier work
T. cruzi amastigotes = system: T. cruzi amastigotes; set-up: method as in doi:10.1080/10412905.2013.820669; conditions: cited from earlier work
[5] = Trypanosoma brucei, 72 h, STIB 900 blood stream forms, 72 h; means of two independent determinations ± deviation from the mean; read-out: IC50 Trypanosoma brucei rhodesiense
[6] = K1 strain (chloroquine- and pyrimethamine-resistant), erythrocytic stages, means of two determinations ± deviation, read-out: IC50 Plasmodium falciparum
[7] = L6 cells (rat skeletal myoblasts)

| SMILES | IC50 [2] [µg/mL] | IC50 [1, 5] [µg/mL] | IC50 [3] [µg/mL] | IC50 (P. falciparum K1 strain; [6]) [µg/mL] | IC50 at 72 h [4, 7] [µg/mL] | further results |
| --- | --- | --- | --- | --- | --- | --- |
| CCN(CC)CCCC(C)Nc1ccnc2cc(Cl)ccc12 (stereo not drawn) [chloroquine, reference compound] |  |  |  |  |  | IC50 (P. falciparum K1 strain; K1, read-out: IC50 Plasmodium falciparum): 0.056 µg/mL (≈ 0.175 µM) |
| CNC[C@H](O)[C@@H](O)[C@H](O)[C@H](O)CO.[O]=[Sb](=[O])[OH] [glucantime] |  |  |  |  |  | reduction of the parasite burden (Leishmania): 100% |
| Nc1nc(N)nc(Nc2ccc([As]3SCC(CO)S3)cc2)n1 (stereo not drawn) [melarsoprol, reference compound] |  |  |  |  |  | IC50 ([1]; Trypanosoma brucei, 72 h, read-out: IC50 Trypanosoma brucei rhodesiense): 0.003 µg/mL |
| CCCCCCCCCCCCCCCCOP(=O)([O-])OCC[N+](C)(C)C [miltefosine, reference compound] | 0.2 (≈ 0.491 µM) |  |  |  |  |  |
| Cc1ccc(C(C)C)cc1 [p-Cymene] | > 90 | 45 ± 27 (≈ 335 µM) | > 90 | > 20 | > 90 |  |
| COc1cc([C@@H]2c3cc4c(cc3[C@H](O)[C@H]3COC(=O)[C@H]23)OCO4)cc(OC)c1OC [phodophyllotoxin, reference compound] |  |  |  |  |  | IC50 at 72 h [4]: 0.004 µg/mL (≈ 0.00965 µM) |
| CC1=CCC2CC1C2(C)C (stereo not drawn) [α-Pinene] | 81.9 ± 9 (≈ 601 µM) | 0.42 ± 0.24 (≈ 3.08 µM) | > 90 | 10.7 ± 1.2 (≈ 78.5 µM) | 87.8 ± 3 (≈ 644 µM) | IC50 T. b. brucei (T. b. brucei): 2.9 µg/mL (≈ 21.3 µM); IC50 T. cruzi epimastigotes (T. cruzi epimastigotes): 2.74 µg/mL (≈ 20.1 µM); IC50 T. cruzi amastigotes (T. cruzi amastigotes): 1.92 µg/mL (≈ 14.1 µM) |
| CC1=CC[C@@H](C(C)(C)O)CC1 [α-Terpineol] | 75.9 ± 4.7 (≈ 492 µM) | 0.56 ± 0.4 (≈ 3.63 µM) | 61 ± 2.1 (≈ 395 µM) | > 20 |  | IC50 [4]: 32.3 ± 0.1 µg/mL (≈ 209 µM) |
| C=C1CC/C=C(\C)CC[C@@H]2[C@@H]1CC2(C)C [β-Caryophyllene] | 52.4 ± 17.4 (≈ 256 µM) | 28.9 ± 11.8 (≈ 141 µM) | 50.1 ± 12.5 (≈ 245 µM) | 12.8 (≈ 62.6 µM) | 62.2 ± 7 (≈ 304 µM) |  |
| CC1=CCC(C(C)C)=CC1 [γ-Terpinene] | > 90 |  | > 90 | > 20 |  | IC50 ([1]; Trypanosoma brucei; STIB 900 blood stream forms, 72 h; means of two independent determinations ± deviation from the mean; read-out: IC50 Trypanosoma brucei rhodesiense): 32.9 ± 26 µg/mL (≈ 241 µM); IC50 [4]: > 90 µg/mL |
